Drawing on the METLIN SMRT retention time set (Domingo-Almenara et al. 2019), this text covers RP-LC retention time for 80 compounds.

Each structure is given as a SMILES string.

The series can be described thus: gradient 5% acetonitrile 3 min, to 50% in 2 min, to 85% in 15 min, held 3 min, 100 µL/min. Conditions: column: Zorbax Extend-C18 2.1 x 50 mm; eluents: water / acetonitrile, 0.1% formic acid. The method, boiled down: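 The mobile phases were water and acetonitrile, each with 0.1% formic acid, pumped at 100 μL/min through a Zorbax Extend-C18 column (2.1 × 50 mm, 1.8 μm). Pure standards were injected as mixtures of ~100 molecules and detected by a quadrupole time-of-flight mass spectrometer in positive and negative ionization mode. Retention time came from computationally picked adduct peaks, each inspected by hand.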
For the compound `Cc1nn(CC(=O)NCCc2ccco2)c(=O)c2nn(-c3ccccc3)c(C)c12`, the RP-LC retention time worked out at 758 s.
For `CC(C)Oc1ccc(CNC(=O)C2CCN(S(=O)(=O)c3cn(C(C)C)cn3)CC2)cc1`, the RP-LC retention time stood at 802 s.
To `CC(=O)Nc1cccc(N2CC(C(=O)Nc3ccc(Cl)c(C(F)(F)F)c3)CC2=O)c1` (stereo not given) belongs 807 s.
`COC[C@@H]1CN(C(=O)c2ccc(C#N)cc2)C[C@H]1C(N)=O` registered an RP-LC retention time of 571 s.
The same measure for `Cc1ccccc1NC(=O)Nc1c(-c2ccc(F)cc2)nc2ccccn12`: 661 s; for `COc1ccc(C(=O)Nc2nc3c(s2)CCCC3C(=O)NCCC2=CCCCC2)cc1` (stereo not given): 1040 s; for `CCCn1c(=O)c2cc(C(=O)NCCCc3ccccc3)nn2c2ccccc21`: 1060 s.
To `COc1ccc(-c2c(C)noc2NC(C)=O)cc1S(=O)(=O)Nc1ccc(Br)cc1F` belongs 817 s.
As for `CNC(=O)CSc1nnc(N2CCN(C(=O)c3cc(-c4ccccc4)on3)CC2)s1`, the RP-LC retention time is 674 s.
The same measure for `CCOC(=O)C1CCN(C(=O)c2nnc(-c3ccc(S(=O)(=O)N4CCCCC4)cc3)o2)CC1`: 961 s; for `Cc1cnn(Cc2nc(-c3ccc(NC(=O)C(C)(C)C)cc3)oc2C)c1`: 863 s.
The same measure for `COc1cccc(CNC2CCN(c3ccc(C(=O)NC4CC4)cn3)C2)c1` (stereo not given): 547 s; for `CCCc1nc(-c2c(C)cc(C)nc2NC(=O)c2ccc(F)c(F)c2)no1`: 947 s; for `CCc1cc(-c2csc(S(=O)(=O)Nc3cc(C)cc(C)c3)c2)on1`: 1050 s.
To `COc1ccc(NC(=O)c2cc(C(C)C)n3nccc3n2)cc1` belongs 1040 s.
Compound `CCC(CC)NC(=O)C1Cn2cccc2C(=O)N1` (stereo not given) showed an RP-LC retention time of 629 s.
The same measure for `CN(C)c1ccc(CNC(=O)C2CCCN(c3nccnc3Sc3ccccc3)C2)cc1` (stereo not given): 744 s; for `COc1ccc(OC)c(CNC(=O)C2CCCN(c3nccnc3Sc3ccccc3)C2)c1` (stereo not given): 1000 s; for `O=C(CN1C(=O)NC2(CCCCC2)C1=O)NCc1ccc2c(c1)OCO2`: 699 s.
The same measure for `Cn1nc(C(=O)N2CCCC2)c2c1CCN(C(=O)Nc1ccccc1)C2`: 704 s.
The same measure for `COc1cccc(NS(=O)(=O)c2cc(-c3[nH]ncc3C(=O)N3CCCC3)oc2C)c1`: 693 s; for `O=C(CN1CCN(Cc2ccccc2F)C1=O)NCc1ccc(N2CCCCC2)cc1`: 605 s.
`COc1ccc(-c2cn3c(CC(=O)Nc4cc(C)on4)csc3n2)cc1OC` came in with an RP-LC retention time of 664 s.
The same measure for `O=C(NCc1csc(-c2cccs2)n1)C1CCN(C(=O)c2ccccc2F)CC1`: 743 s; for `COc1ccc(N2CCN(C(=O)c3sc4ncccc4c3-n3cccc3)CC2)cc1`: 917 s; for `CC(C)n1c(=O)oc2cc(-c3noc(CNC(=O)Cc4ccccc4)n3)ccc21`: 842 s.
To `Clc1ccccc1-c1nnc(CN2CCN(c3ccccn3)CC2)o1` belongs 602 s; to `Cc1cccc2c(C(N)=O)cc(=O)[nH]c12`, 596 s.
`CN1C(=O)NC2NCN(C)C2C1=O` (stereo not given) showed an RP-LC retention time of 576 s.
`CCCN1C(=O)CN(S(=O)(=O)c2ccccc2)CC1(C)C(=O)NCc1ccc(F)cc1` (stereo not given) showed an RP-LC retention time of 827 s.
The same measure for `COc1ccc(S(=O)(=O)N2CCC(OCc3noc(C4CCCO4)n3)CC2)cc1` (stereo not given): 863 s.
The same measure for `COC(=O)c1cccc(-c2nc(C3CC(=O)N(c4ccc(F)c(Cl)c4)C3)no2)c1` (stereo not given): 1050 s; for `O=C(c1ccc(Cn2cncn2)cc1)N1CCc2ccccc21`: 706 s.
The same measure for `Cc1c(Cl)cccc1NC(=O)Cn1ccc2sccc2c1=O`: 764 s; for `COc1cccc(S(=O)(=O)N2CCc3c(c(-c4nnc(-c5ccc(F)cc5)o4)nn3C)C2)c1`: 942 s; for `CCOC(=O)c1cn(Cc2cccc(C)c2)c2nc(C)ccc2c1=O`: 925 s.
As for `CC(C)NC(=O)c1ccc(OCC2CCCN(C(=O)c3ccccc3)C2)cc1` (stereo not given), the RP-LC retention time is 825 s.
In turn, `CCOc1ccccc1N1C=C(C(=O)OC)S(=O)(=O)c2ccccc21` yielded an RP-LC retention time of 849 s.
The same measure for `CC(=O)c1ccc(NC(=O)Cc2csc3nc(-c4ccc(C)c(C)c4)cn23)cc1`: 795 s; for `CCc1ccc(CCN2C(=O)c3ccccc3C2=O)nc1`: 667 s.
Compound `COc1ccc(-c2nnc(-c3ccc(Cl)c(S(=O)(=O)N4CCC(C)CC4)c3)o2)cc1OC` came in with an RP-LC retention time of 1180 s.
To `O=C(c1ccccc1C(F)(F)F)N1CCN(S(=O)(=O)C2CC2)CC1` belongs 725 s; to `O=C(c1ccc(Cl)cc1)N1CCN(c2cc(-c3cccs3)[nH]n2)CC1`, 809 s; to `Cc1nc(N2CCN(C(=O)c3ccccc3)CC2)c(C#N)c2c1COC(C)(C)C2`, 941 s.
To `Cc1cc(=O)n(CC(=O)Nc2ccc(Br)cc2F)c(N2CCC(C)CC2)n1` belongs 750 s; to `O=c1n(Cc2ccc(F)cc2Cl)nc2ccc(S(=O)(=O)N3CCCCCC3)cn12`, 1050 s; to `Cc1[nH]c(C(=O)N2CCC(CC(=O)N3CCC(C)CC3)CC2)c(C)c1C(=O)OC(C)C`, 849 s.
The same measure for `CCCNC(=O)c1cc(=O)[nH]c2ccc(F)cc12`: 635 s.
In the case of `O=C(CCc1cccc2[nH]ccc12)N1CCN(c2cccc(Cl)c2)CC1`, the RP-LC retention time was 980 s.
`O=C(CCCN1C(=O)CSc2ncccc21)N1CCN(c2ccccn2)CC1` showed an RP-LC retention time of 559 s.
Compound `CC(=O)N(CC(=O)N1CCc2sccc2C1COc1ccc(F)cc1)C(C)C` (stereo not given) yielded an RP-LC retention time of 805 s.
For the compound `Cc1ccc(OC(=O)c2cc3c(C)nn(-c4ccccc4)c3s2)cc1C`, the RP-LC retention time was found to be 979 s.
To `Cc1ccc(NC(=O)Cn2cnc(C)c(C)c2=O)c(F)c1` belongs 667 s; to `Cc1ccccc1CN1CCN(c2ccccn2)CC1`, 566 s.
The same measure for `O=C(Nc1ccc(Cl)cc1F)c1cccn1Cc1noc(C2CC2)n1`: 1020 s; for `CCOC(=O)C1CCN(C(=O)CCC(=O)N2CCCn3nc(C)cc32)CC1`: 646 s.
To `CCCC(NC(=O)Cc1ccccc1C)C(=O)Nc1nc2ccccc2[nH]1` (stereo not given) belongs 704 s; to `CC(C)(C)OC(=O)NCc1nnc(C(F)(F)F)n1-c1ccccc1`, 773 s.
`CCCNc1cc(N2CCC(CCC(=O)N(C)CCc3ccccn3)CC2)ncn1`: the RP-LC retention time was found to be 570 s.
To `CCc1noc2nc(C)nc(N3CCCC(C(=O)NCCN4CCCC4)C3)c12` (stereo not given) belongs 597 s.
To `Cc1ccc(CNC(=O)C2CCN(c3cncnc3N3CCOCC3)CC2)cc1C` belongs 649 s.
The same measure for `OC1(c2ccccc2)CCN(Cc2ccccc2)CC1`: 553 s; for `Cn1ncc2c3ccccc3n(CC(=O)NCCCN3CCCCC3)c2c1=O`: 580 s.
Compound `c1cn(-c2cc(NC3CCCCC3)ncn2)cn1` displayed an RP-LC retention time of 617 s.
With `CC(C)CCNCC(O)Cn1c2ccc(Br)cc2c2cc(Br)ccc21` (stereo not given), the RP-LC retention time was determined as 906 s.
To `CCOc1ccccc1C(=O)NC1CCN(c2cc(-c3ccccc3)[nH]n2)C1` (stereo not given) belongs 684 s; to `CCCc1nnc(NC(=O)C2CCN(C(=O)c3cccc(F)c3)CC2)s1`, 727 s.
To `COc1ccccc1NC(=O)Cn1cccc1-c1nnc(-c2ccccc2)o1` belongs 1020 s; to `O=C(C1CCC1)N1CCc2sc(S(=O)(=O)NCc3ccc(Cl)cc3)cc2C1`, 916 s.
To `COc1ccc(C(=O)N2C[C@H](c3nc(-c4ccccc4)no3)[C@@H](C)C2)cc1F` belongs 991 s.
`O=C(CN1C(=O)CCCc2cc(S(=O)(=O)N3CCCC3)ccc21)Nc1ccc(Cl)cc1` came in with an RP-LC retention time of 892 s.
To `Cc1cc2nn(CC(=O)Nc3ccccc3)c(=O)n2c(Nc2ccccc2)n1` belongs 965 s; to `O=C(c1ccc2c(c1)OCO2)N1CCN(c2ccc(=O)n(-c3ccc(Cl)cc3)n2)CC1`, 791 s; to `CCCCN1C(=O)C(CC(=O)N2CCCC2)Sc2ncccc21` (stereo not given), 755 s.
`Cn1c(C2CCC(CNC(=O)Cn3c(=O)oc4ccccc43)CC2)nc2ccccc21` (stereo not given): the RP-LC retention time was found to be 566 s.
To `CCOC(=O)c1ccc2nc(NC(=O)c3cccc([N+](=O)[O-])c3)sc2c1` belongs 959 s.
The same measure for `CCOc1ccccc1-c1noc(Cn2c(=O)n(-c3ccc(OC)cc3)c(=O)c3sccc32)n1`: 962 s; for `O=C(Cn1c(Cc2ccccc2)nc2ccccc21)N1CCOCC1`: 593 s; for `Cc1ccc(NS(=O)(=O)c2cn(CC(C)C)c3ncccc23)cc1F`: 953 s.
To `Cn1c(=O)n(C)c2cc(S(=O)(=O)c3ccc(F)cc3)c(NC(=O)c3cccc(F)c3)cc21` belongs 896 s.
